# Experimental data reported in PubChem BioAssay (NCI).
#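 A five-concentration, 48-hour dose response in 96-well plates underlies each endpoint, interpolated linearly between surrounding concentrations. The concentration for full growth arrest is given as TGI.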
# Experiments:
# Experiment in all cases: DTP human tumour cell line panel, 48 h
# A498 renal = system: A498 renal
# HCT-15 colon = system: HCT-15 colon
# HL-60(TB) leukemia = system: HL-60(TB) leukemia
# HOP-62 NSCLC = system: HOP-62 NSCLC
# M14 melanoma = system: M14 melanoma
# MALME-3M melanoma = system: MALME-3M melanoma
# MCF7 breast = system: MCF7 breast
# MDA-MB-435 = system: MDA-MB-435
# MDA-N = system: MDA-N
# MOLT-4 leukemia = system: MOLT-4 leukemia
# NCI-H460 lung = system: NCI-H460 lung
# RXF 393 renal = system: RXF 393 renal
# SF-295 CNS = system: SF-295 CNS
# SR leukemia = system: SR leukemia
# SW-620 colon = system: SW-620 colon
# T-47D breast = system: T-47D breast
# UACC-62 melanoma = system: UACC-62 melanoma
# UO-31 renal = system: UO-31 renal
# RPMI-8226 leukemia = system: RPMI-8226 leukemia
# SK-MEL-2 melanoma = system: SK-MEL-2 melanoma
SMILES,TGI (A498 renal),TGI (HCT-15 colon),TGI (HL-60(TB) leukemia),TGI (HOP-62 NSCLC),TGI (M14 melanoma),TGI (MALME-3M melanoma),TGI (MCF7 breast),TGI (MDA-MB-435),TGI (MDA-N),TGI (MOLT-4 leukemia),TGI (NCI-H460 lung),TGI (RXF 393 renal),TGI (SF-295 CNS),TGI (SR leukemia),TGI (SW-620 colon),TGI (T-47D breast),TGI (UACC-62 melanoma),TGI (UO-31 renal),TGI (RPMI-8226 leukemia),TGI (SK-MEL-2 melanoma)
CC1(C)CO[P@@](=S)(c2ccccn2)O[C@@H]1c1ccccc1,> 100 µM,> 100 µM,> 100 µM,> 100 µM,> 100 µM,> 100 µM,> 100 µM,> 100 µM,> 100 µM,> 100 µM,> 100 µM,> 100 µM,> 100 µM,> 100 µM,> 100 µM,> 100 µM,> 100 µM,> 100 µM,–,–
Oc1[nH]c2ccccc2c1C1=Nc2ccccc2/C1=N\OCCOC1OCC(O)C(O)C1O (stereo unspecified),–,> 100 µM,> 100 µM,> 100 µM,> 100 µM,> 100 µM,> 100 µM,> 100 µM,> 100 µM,> 100 µM,> 100 µM,> 100 µM,> 100 µM,> 100 µM,> 100 µM,> 100 µM,> 100 µM,> 100 µM,> 100 µM,> 100 µM
CC1(C)OCC(C2OC3OC(C)(C)OC3C2c2ccccc2)O1 (stereo unspecified),–,> 100 µM,50 µM,> 100 µM,93.9 µM,> 100 µM,> 100 µM,93.5 µM,> 100 µM,> 100 µM,> 100 µM,> 100 µM,> 100 µM,> 100 µM,> 100 µM,> 100 µM,87.1 µM,> 100 µM,> 100 µM,64.8 µM
COc1ccc2c(O)c(S(=O)(=O)c3ccc(C)cc3)c(=O)oc2c1OC,–,> 100 µM,> 100 µM,–,> 100 µM,> 100 µM,> 100 µM,> 100 µM,> 100 µM,> 100 µM,> 100 µM,> 100 µM,> 100 µM,> 100 µM,> 100 µM,> 100 µM,> 100 µM,> 100 µM,> 100 µM,> 100 µM
O=C(Nc1cccc(F)c1)c1cc2ccc(O)cc2oc1=Nc1cccc(F)c1,> 100 µM,60.1 µM,10.1 µM,> 100 µM,> 100 µM,84 µM,> 100 µM,> 100 µM,> 100 µM,32.4 µM,> 100 µM,–,> 100 µM,> 100 µM,> 100 µM,42.2 µM,> 100 µM,> 100 µM,> 100 µM,> 100 µM
CCc1ccc2[nH]c(O)c(C3=Nc4ccccc4C3=O)c2c1,18.2 µM,> 100 µM,–,41.4 µM,> 100 µM,> 100 µM,10.9 µM,> 100 µM,> 100 µM,64.2 µM,> 100 µM,51.4 µM,61.2 µM,37.8 µM,> 100 µM,77.5 µM,43.3 µM,37.9 µM,> 100 µM,43.7 µM
CC(=O)O[C@H]1CC[C@@]2(C)C(=CC[C@@H]3[C@@H]2CC[C@]2(C)c4c(n[nH]c4C)C[C@@H]32)C1,41 µM,34.2 µM,28.4 µM,37.8 µM,37.3 µM,12.7 µM,24.2 µM,33.9 µM,46.6 µM,53.4 µM,32.4 µM,23.9 µM,37.2 µM,58.7 µM,> 100 µM,25 µM,25 µM,33.8 µM,–,–
CCOP(=O)(OCC)/C(C#N)=C/c1ccccn1,> 100 µM,> 100 µM,> 100 µM,> 100 µM,> 100 µM,> 100 µM,> 100 µM,> 100 µM,> 100 µM,> 100 µM,> 100 µM,> 100 µM,> 100 µM,> 100 µM,> 100 µM,> 100 µM,> 100 µM,–,> 100 µM,–
COC(=O)C1Cc2c(OC)ccc(OC)c2C(O)C1C(=O)OC (stereo unspecified),–,–,> 100 µM,> 100 µM,> 100 µM,> 100 µM,> 100 µM,> 100 µM,> 100 µM,> 100 µM,> 100 µM,> 100 µM,> 100 µM,> 100 µM,> 100 µM,> 100 µM,> 100 µM,> 100 µM,> 100 µM,> 100 µM
CN=C(Nc1ccc(OC)c2ccccc12)SC,–,> 10 µM,> 10 µM,> 10 µM,> 10 µM,> 10 µM,> 10 µM,> 10 µM,> 10 µM,> 10 µM,–,–,> 10 µM,> 10 µM,> 10 µM,> 10 µM,> 10 µM,–,> 10 µM,–
COc1ccc(/C=C2\C[C@H]3[C@@H]4CCC5=C/C(=N/O)CC[C@]5(C)[C@H]4CC[C@]3(C)\C2=N\O)cc1,–,> 100 µM,–,> 100 µM,57.7 µM,> 100 µM,88.5 µM,> 100 µM,> 100 µM,> 100 µM,> 100 µM,98.8 µM,> 100 µM,86 µM,> 100 µM,> 100 µM,> 100 µM,57.5 µM,93.5 µM,72.4 µM
CC1(C)CC(=O)c2c(nc3c(ccc4ccccc43)c2-c2ccc(NC(=O)CCC(=O)Nc3ccc(-c4c5c(nc6c4ccc4ccccc46)CC(C)(C)CC5=O)cc3)cc2)C1,–,> 100 µM,> 100 µM,> 100 µM,> 100 µM,–,> 100 µM,> 100 µM,> 100 µM,> 100 µM,> 100 µM,> 100 µM,> 100 µM,> 100 µM,> 100 µM,> 100 µM,> 100 µM,> 100 µM,> 100 µM,> 100 µM
Nc1[nH]c(=O)nc2snnc12,–,> 100 µM,> 100 µM,> 100 µM,> 100 µM,> 100 µM,> 100 µM,> 100 µM,> 100 µM,> 100 µM,> 100 µM,> 26.8 µM,> 100 µM,> 100 µM,> 100 µM,> 100 µM,> 78.3 µM,> 31.2 µM,> 100 µM,14.4 µM
Oc1ccc(/C=C/c2cccc(/C=C/c3ccc(O)c(O)c3)n2)cc1O,26.2 µM,> 100 µM,13.4 µM,> 100 µM,16.9 µM,–,25.8 µM,28 µM,20.5 µM,17.8 µM,38.1 µM,–,65.1 µM,14.5 µM,> 100 µM,7.06 µM,18.6 µM,11.2 µM,31.1 µM,32.5 µM
O=c1[nH]nc(-c2ccccc2)n1/N=C/c1ccccc1O,> 100 µM,> 100 µM,–,–,–,> 100 µM,> 100 µM,> 100 µM,> 100 µM,> 100 µM,> 100 µM,> 100 µM,> 100 µM,> 100 µM,> 100 µM,> 100 µM,> 100 µM,> 100 µM,> 100 µM,> 100 µM
CC(=O)C(C(=O)c1ccc(C)cc1)[C@H]1OC(C)(C)O[C@H]1[C@H]1COC(C)(C)O1 (stereo partly specified),14.7 µM,31.6 µM,–,14.3 µM,14.4 µM,18.4 µM,8.68 µM,9.55 µM,6.63 µM,> 50 µM,17.2 µM,9.01 µM,16.9 µM,> 50 µM,10.8 µM,18.9 µM,12.5 µM,14 µM,> 50 µM,9.52 µM
CC(=O)NC1(NC(C)=O)C2CC(C1Cc1ccccc1)C(C)(C)C2C (stereo unspecified),> 100 µM,–,> 100 µM,> 100 µM,> 100 µM,> 100 µM,> 100 µM,> 100 µM,> 100 µM,> 100 µM,> 100 µM,> 100 µM,> 100 µM,> 100 µM,> 100 µM,> 100 µM,> 100 µM,> 100 µM,–,–
COc1cc(C(=O)Oc2c(C(C)=O)sc3c2c(=O)n(-c2ccccc2)c(=S)n3-c2ccccc2)cc(OC)c1OC,28.3 µM,44.1 µM,49.7 µM,67.1 µM,32.9 µM,27.8 µM,44.8 µM,54.8 µM,57 µM,50.5 µM,29.8 µM,41.6 µM,40.6 µM,> 100 µM,68.4 µM,99.6 µM,47.6 µM,–,59.9 µM,–
CC1CN=C(Nc2cccc(F)c2)S1 (stereo unspecified),–,> 100 µM,> 100 µM,> 100 µM,> 100 µM,> 100 µM,> 100 µM,> 100 µM,> 100 µM,–,–,> 100 µM,> 100 µM,> 100 µM,> 100 µM,> 100 µM,> 100 µM,> 100 µM,> 100 µM,> 100 µM
CC(C)(C)OC(=O)N1NC(c2ccccc2)CC1c1ccccc1 (stereo unspecified),74.4 µM,60.1 µM,–,> 100 µM,58.8 µM,–,61 µM,65.3 µM,> 100 µM,> 100 µM,> 100 µM,58.4 µM,> 100 µM,> 100 µM,> 100 µM,56.2 µM,88.1 µM,53.2 µM,> 100 µM,–
Cc1ccc2nc3n[nH]c(N)c3nc2c1,> 100 µM,> 100 µM,–,> 100 µM,> 100 µM,> 100 µM,> 100 µM,> 100 µM,> 100 µM,> 100 µM,> 100 µM,> 100 µM,> 100 µM,> 100 µM,> 100 µM,> 100 µM,> 100 µM,> 100 µM,> 100 µM,> 100 µM
C1CCCCC2(CCCCCCCCC3(CCC1)SCCS3)SCCS2,> 100 µM,> 100 µM,> 100 µM,> 100 µM,> 100 µM,> 100 µM,> 100 µM,> 100 µM,> 100 µM,–,> 100 µM,–,> 100 µM,> 100 µM,> 100 µM,> 100 µM,> 100 µM,–,–,> 100 µM
O=C1/C(=C\c2ccc(Br)cc2)CCCc2ccccc21,45.6 µM,24.8 µM,69 µM,> 100 µM,> 100 µM,–,> 100 µM,61.5 µM,47 µM,58.5 µM,34 µM,43.3 µM,52.9 µM,58 µM,43 µM,50.6 µM,26.5 µM,27.8 µM,48.8 µM,39.2 µM
COc1ccc(-c2oc3cc(OC)c(OC)c(O)c3c(=O)c2OC)cc1,–,> 100 µM,> 100 µM,> 100 µM,> 100 µM,> 100 µM,> 100 µM,> 100 µM,> 100 µM,> 100 µM,> 100 µM,78.8 µM,46.9 µM,> 100 µM,> 100 µM,> 100 µM,84.4 µM,> 100 µM,> 100 µM,> 100 µM
N#Cc1c2ccc([N+](=O)[O-])cc2c(=O)n2c1[nH]c1ccc(C(F)(F)F)cc12,> 48.8 µM,> 100 µM,> 100 µM,> 100 µM,> 100 µM,> 100 µM,> 100 µM,> 100 µM,> 100 µM,> 100 µM,> 100 µM,–,66.1 µM,> 25.7 µM,> 100 µM,> 100 µM,> 100 µM,56.9 µM,13.6 µM,> 100 µM
